Measurements as given in US8021694B2, “Acidified chlorite disinfectant compositions with olefin stabilizers” (Ecolab USA Inc., priority 2001, dated 2011).

Assays:
Format in all cases: physicochemical
[1] = Rate of color fading at 35° C. of mixed acidified chlorite product, UV/Vis spectroscopy at 425 nm; conditions: for Initial Color Intensity Remaining, Time After Mixing 1 hour: 1 hour after mixing; for Initial Color Intensity Remaining, Time After Mixing 2 hour: 2 hour after mixing; for Initial Color Intensity Remaining, Time After Mixing 3 hour: 3 hour after mixing; for Initial Color Intensity Remaining, Time After Mixing 4 hour: 4 hour after mixing
Experimental: (§1) The rate of color fading at 35° C. was quantified by UV/Vis spectroscopy at 425 nm.
as §1

[2] = Rate of sodium chlorite consumption, standard iodometric titration; conditions: olefin compound at 1.4%
Excerpt: The rate of sodium chlorite consumption was quantified using a standard iodometric titration method.

[3] = Rate of chlorine dioxide generation in mixed acidified chlorite product, UV/Vis spectroscopy at 360 nm; conditions: olefin 0.0225M in mixed product, 1.32% lactic acid, 0.32% sodium chlorite, pH 2.75; for Chlorine Dioxide, Time After Mixing 1 hour: 1 hour after mixing; for Chlorine Dioxide, Time After Mixing 2 hour: 2 hour after mixing; for Chlorine Dioxide, Time After Mixing 3 hour: 3 hour after mixing; for Chlorine Dioxide, Time After Mixing 4 hour: 4 hour after mixing; for Chlorine Dioxide, Time After Mixing 5 hour: 5 hour after mixing
Experimental: A series of two-part acidified chlorite products were prepared that when combined 1:1 produced compositions containing 1.32% lactic acid, 0.32% sodium chlorite, an olefin compound formulated at a 0.0225M, and sufficient quantities of sodium hydroxide to produce a mixed product pH of 2.75. The rate of chlorine dioxide generation was determined by UV/Vis spectroscopy at 360 nm (54.31 ppm/A.U. cm).

[4] = olefin 0.045M in acid part (0.0225M mixed), FD&C Yellow #5, pH 2.75
[5] = component at 0.4%, mixed product pH 2.75

Molecule	Initial Color Intensity Remaining, Time After Mixing 1 hour [1, 4]	Initial Color Intensity Remaining, Time After Mixing 2 hour [1, 4]	Initial Color Intensity Remaining, Time After Mixing 3 hour [1, 4]	Initial Color Intensity Remaining, Time After Mixing 4 hour [1, 4]	Initial Color Intensity Remaining, Time After Mixing ½ hour [1, 4]	Chlorine Dioxide, Time After Mixing 1 hour [3] [ppm]	Chlorine Dioxide, Time After Mixing 2 hour [3] [ppm]	Chlorine Dioxide, Time After Mixing 3 hour [3] [ppm]	Chlorine Dioxide, Time After Mixing 4 hour [3] [ppm]	Chlorine Dioxide, Time After Mixing 5 hour [3] [ppm]	further results
CCCCCCCC/C=C\CCCCCCCC(=O)NCCOC(=O)C(CC(=O)[O-])S(=O)(=O)[O-].[Na+].[Na+] (centres unmarked) [Disodium oleamido MEA sulfosuccinate]	** (>50% of Initial Color Intensity Remaining)	** (>50% of Initial Color Intensity Remaining)	** (>50% of Initial Color Intensity Remaining)	** (>50% of Initial Color Intensity Remaining)	** (>50% of Initial Color Intensity Remaining)						
CCCCCCCC/C=C\CCCCCCCC(=O)NCCC[N+](C)(C)CC(=O)[O-] [Oleamidopropyl betaine]	** (>50% of Initial Color Intensity Remaining)	** (>50% of Initial Color Intensity Remaining)	** (>50% of Initial Color Intensity Remaining)	** (>50% of Initial Color Intensity Remaining)	** (>50% of Initial Color Intensity Remaining)						
CCCCCCCC/C=C\CCCCCCCC(=O)N(C)CCS(=O)(=O)[O-].[Na+] [Sodium N-methyl oleoyl taurate, sodium N-methyl oleoyl taurate]	** (>50% of Initial Color Intensity Remaining)	** (>50% of Initial Color Intensity Remaining)	** (>50% of Initial Color Intensity Remaining)	** (>50% of Initial Color Intensity Remaining)	** (>50% of Initial Color Intensity Remaining)	4	5	5	6	7	Initial NaClO2 Level remaining, Time After Mixing 1 hour ([2]; 1 hour after mixing, pH 2.75 when mixed 1:1): ** (>50% Initial NaClO2 Level); Initial NaClO2 Level remaining, Time After Mixing 2 hour ([2]; 2 hour after mixing, pH 2.75 when mixed 1:1): ** (>50% Initial NaClO2 Level); Initial NaClO2 Level remaining, Time After Mixing 3 hour ([2]; 3 hour after mixing, pH 2.75 when mixed 1:1): ** (>50% Initial NaClO2 Level); Initial NaClO2 Level remaining, Time After Mixing 4 hour ([2]; 4 hour after mixing, pH 2.75 when mixed 1:1): ** (>50% Initial NaClO2 Level); Initial NaClO2 Level remaining, Time After Mixing 5 hour ([2]; 5 hour after mixing, pH 2.75 when mixed 1:1): ** (>50% Initial NaClO2 Level); Rate of sodium chlorite consumption ([2]; equal weight-base comparison, in words): stronger effect than alpha olefin sulfonate; Initial Color Intensity Remaining, Time After Mixing 1 hour [1, 5]: ** (>50% of Initial Color Intensity Remaining); Initial Color Intensity Remaining, Time After Mixing 2 hour [1, 5]: ** (>50% of Initial Color Intensity Remaining); Initial Color Intensity Remaining, Time After Mixing 3 hour [1, 5]: ** (>50% of Initial Color Intensity Remaining); Extension of colorant intensity ([1]; component at 0.4%, in words): extended the colorant intensity longer; Initial Color Intensity Remaining, Time After Mixing ½ hour [1, 5]: ** (>50% of Initial Color Intensity Remaining)
CCCCCCCC/C=C\CCCCCCCC[N+](C)(CCO)CCO.[Cl-] [oleylmethylbis(hydroxyethyl)ammonium chloride]	** (>50% of Initial Color Intensity Remaining)	** (>50% of Initial Color Intensity Remaining)	** (>50% of Initial Color Intensity Remaining)	** (>50% of Initial Color Intensity Remaining)	** (>50% of Initial Color Intensity Remaining)						
Oleth-10	** (>50% of Initial Color Intensity Remaining)	** (>50% of Initial Color Intensity Remaining)	** (>50% of Initial Color Intensity Remaining)	** (>50% of Initial Color Intensity Remaining)	** (>50% of Initial Color Intensity Remaining)	10	16	21	25	28	
Oleth-10 phosphate	** (>50% of Initial Color Intensity Remaining)	** (>50% of Initial Color Intensity Remaining)	** (>50% of Initial Color Intensity Remaining)	** (>50% of Initial Color Intensity Remaining)	** (>50% of Initial Color Intensity Remaining)	7	14	17	21	25	
